The source of these data is US20250289827A1, “MORPHIC FORMS OF A MUTANT BRAF DEGRADER AND METHODS OF MANUFACTURE THEREOF” (C4 THERAPEUTICS, INC., priority 2022, published 2025).

As a reminder, the solubility is the dissolved amount per volume that the medium holds. Broadly, the DC50 is the concentration at which degradation of the target reaches its halfway point. Read a high DC50 as degradation only at high concentration.

The nature of data set [1]: Solubility in spray drying solvent system. It is filed as physicochemical. Conditions: 80:20 dichloromethane:methanol, organic solvent or mixture. The source says: The stability of the SDI was supported by XRPD and HPLC purity and assay data. The secondary drying parameters were established to ensure adequate SDI stability during drying and that the ICH limits for residual dichloromethane and methanol can be met. Through a feasibility batch and an engineering batch, an SDI manufacturing process is established.

The target of the next data set is BRAF^V600E (Homo sapiens, UniProt P15056, V600E). As to the kind of experiment: BRAF V600E degradation in A375 cells. It is filed as cell-based. As to conditions: 24 hr.
The nature of data set [2]: Crystallization by addition of anti-solvent. It is filed as physicochemical. As to the method: About 50 mg of Compound 1 Form A was dissolved in the minimal amount of selected good solvents at ambient temperature (about 20-25° C.). Obtained solutions were filtered through a 0.45 μm syringe membrane filter. […] Precipitates were collected by centrifugation filtration through a 0.45 μm nylon membrane filter at 14,000 rpm. Solid parts (wet cakes) were investigated by XRPD.

Data set [3] can be described thus: Salt screening by slurry equilibration. It is filed as physicochemical. As to the method:
About 30 mg of Compound 1 Form A and 0.5 or 1 equivalent of base were added into a solvent in a 2 mL glass vial. […] Obtained mixtures were stirred at 25° C. for at least 48 hours.
Obtained suspensions were filtered through a 0.45 μm nylon membrane filter by centrifugation at 14,000 rpm. After being dried at 25° C. under vacuum for 2 h, solid parts were analyzed by XRPD.

Data set [4] in a line: Salt screening by re-slurry. The format is physicochemical.
Setting [5] is: Acetone (3) / anti-solvent Heptane (2) mL.

BRAF^V600E, sequence (P15056 whole entry V600E): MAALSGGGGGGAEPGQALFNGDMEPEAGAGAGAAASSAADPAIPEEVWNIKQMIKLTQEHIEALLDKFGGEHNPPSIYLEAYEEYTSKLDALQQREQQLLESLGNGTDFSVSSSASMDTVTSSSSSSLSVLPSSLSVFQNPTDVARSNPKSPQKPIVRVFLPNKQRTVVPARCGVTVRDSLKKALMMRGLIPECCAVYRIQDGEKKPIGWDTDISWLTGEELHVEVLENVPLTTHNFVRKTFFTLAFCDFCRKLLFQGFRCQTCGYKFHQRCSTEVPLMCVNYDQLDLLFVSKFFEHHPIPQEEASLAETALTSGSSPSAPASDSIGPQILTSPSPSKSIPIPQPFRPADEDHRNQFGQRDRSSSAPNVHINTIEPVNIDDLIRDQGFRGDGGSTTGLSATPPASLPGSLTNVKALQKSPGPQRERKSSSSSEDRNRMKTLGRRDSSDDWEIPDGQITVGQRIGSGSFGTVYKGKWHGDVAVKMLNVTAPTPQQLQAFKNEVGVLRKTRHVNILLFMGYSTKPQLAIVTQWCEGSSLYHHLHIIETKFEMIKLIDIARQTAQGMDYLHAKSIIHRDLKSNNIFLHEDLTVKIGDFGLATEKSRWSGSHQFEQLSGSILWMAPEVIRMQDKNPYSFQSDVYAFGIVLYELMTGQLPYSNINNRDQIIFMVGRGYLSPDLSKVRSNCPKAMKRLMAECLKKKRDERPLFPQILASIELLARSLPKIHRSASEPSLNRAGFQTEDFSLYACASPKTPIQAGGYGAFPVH

`CCN(C)S(=O)(=O)Nc1ccc(F)c(Oc2ccc3ncn([C@H]4COC5(CCN(C(=O)CC6(O)CCN(c7cc8c(cc7F)c(N7CCC(=O)NC7=O)nn8C)CC6)CC5)C4)c(=O)c3c2)c1C#N` [Compound 1, (3R)-3-[6-[2-cyano-3-[[ethyl(methyl)sulfamoyl]amino]-6-fluorophenoxy]-4-oxoquinazolin-3-yl]-8-[2-[1-[3-(2,4-dioxo-1,3-diazinan-1-yl)-5-fluoro-1-methylindazol-6-yl]-4-hydroxypiperidin-4-yl]acetyl]-1-oxa-8-azaspiro[4.5]decane]: in data set [1], the solubility is above 100 mg/mL. For the same molecule, at BRAF^V600E, the BRAF protein degraded is 74% and the half-maximal degradation concentration (DC50) worked out at 14 nM.

As to `CCN(C)S(=O)(=O)Nc1ccc(F)c(Oc2ccc3ncn([C@H]4COC5(CCN(C(=O)CC6(O)CCN(c7cc8c(cc7F)c(N7CCC(=O)NC7=O)nn8C)CC6)CC5)C4)c(=O)c3c2)c1C#N` [Compound 1 Form A], the “Results (After 2 hours)” value is “Sticky material” in data set [2] (1,4-Dioxane (0.1) / anti-solvent Water (0.2) mL), “Low crystallinity” in data set [2] (setting [5]), “Sticky material” in data set [2] (DCM (0.2) / anti-solvent Heptane (0.2) mL) and “Oil material” in data set [2] (THF (0.2) / anti-solvent Water (0.2) mL). In addition, the XRPD result in data set [2] (setting [5]) was “Form A”. Besides, the “Slurry equilibration result (XRPD)” value in data set [3] (Ca(OH)2 (0.5 equiv.), Acetone, 5% water) is “Sticky material”; in data set [3] (Ca(OH)2 (0.5 equiv.), Acetonitrile, 5% water), “Sticky material”; in data set [3] (Choline (1 equiv.), Acetone), “Sticky material”; in data set [3] (Choline (1 equiv.), Acetonitrile), “Sticky material”; in data set [3] (Choline (1 equiv.), Methanol), “Clear solution”; in data set [3] (Erbumine (1 equiv.), Methanol), “Few solids”. The “Slurry equilibration result (XRPD)” value in data set [3] (Free form only, Acetone) is reported as “Form B”; in data set [3] (Free form only, Acetonitrile) it was “Form B”; in data set [3] (Methylglucamine (1 equiv.), Methanol) it was “Sticky material”; in data set [3] (Mg(OH)2 (0.5 equiv.), Acetone, 5% water), “Few solids”; in data set [3] (Mg(OH)2 (0.5 equiv.), Acetonitrile, 5% water), “Form B”; in data set [3] (NH3 (1 equiv.), Acetone) it was “Hazy suspension”. Further, the “Slurry equilibration result (XRPD)” value in data set [3] (NH3 (1 equiv.), Acetonitrile) is reported as “Form I*”; in data set [3] (TRIS (1 equiv.), Methanol), “Few solids”. The Re-slurry result in data set [4] (Ca(OH)2, Ethyl Acetate) is “Almost amorphous”; in data set [4] (Choline, Ethyl Acetate), “Sticky material”; in data set [4] (Choline, MTBE), “Sticky material”; in data set [4] (Choline, Toluene) it was “Sticky material”; in data set [4] (Methylglucamine, Ethyl Acetate) it was “Form A”.
